This experiment has as its target tyrosinase. The experiment can be described thus: enzyme assay with L-tyrosine substrate, […] nm. Type of experiment: biochemical.

SMILES strings stand for the structures.

Take `COc1ccc2c(c1)[nH]c1cc(OC)c(C(=O)O)cc12` [L3, Clausine K]: the “Tyrosinase Inhibition IC50” value amounted to 179.5 µg/mL.

The record behind these values is publication PMC6943736, “Bio-Guided Isolation of Prospective Bioactive Constituents from Roots of Clausena indica (Dalzell) Oliv” (Molecules, 2019).
